The subject of data set [1] is tri-transgenic Alzheimer's mice (3×Tg-AD). Nature of the data set: Morris water maze, Alzheimer's mice. It counts as in vivo. As to conditions: intraperitoneal injection. An excerpt: Adult male tri-transgenic Alzheimer's mice (3×Tg-AD) were housed under standard conditions with free access to food and water. Our Morris water maze experiment for testing Alzheimer's mice mainly included two parts: positioning navigation experiment and space exploration experiment. The positioning navigation experiment lasted for 8-10 days, and the mice were put into the water four times a day from four entry points facing the pool wall, and the time they spent in finding the hidden platform under the water surface (evasion latency) was recorded. The space exploration experiment was to remove the platform after the positioning navigation experiment, and then put the mice into the pool, record their swimming tracks within one minute, investigate the memory of the mice on the original platform, and calculate the proportion of exploration duration of the mice in the quadrant where the original platform was located (target quadrant). Alzheimer's mice were confirmed to have memory deficiency in the Morris water maze experiment, showing not only a longer evasion latency for positioning the hidden platform in the positioning navigation experiment, but also a worse memory backtracking ability in the space exploration experiment. We randomized Alzheimer's mice into four groups, with the first group given intraperitoneal injection of the CCK4 solution, the second group given intraperitoneal injection of the solvent of CCK4 solution as a control, the third group given intraperitoneal injection of the compound HT-267 solution, and the fourth group given intraperitoneal injection of the solvent of HT-267 solution as a control.

The conditions of data set [2]: mouse, in vivo; cited from earlier work.
The subject of data set [3] is senile wild-type mice. Put plainly: Morris water maze, senile wild-type mice. It counts as in vivo, mice (C57BL/6). As to conditions: intraperitoneal injection.
The subject of data set [4] is memory-deficient mice. Put plainly: Morris water maze, memory-deficient mice. Type of data set: in vivo. As to conditions: intraperitoneal injection, CCK4 four times a day 10 days, HT compounds once a day 8 days. The source says:
Adult memory-deficient mice were housed under standard conditions with free access to food and water. Our Morris water maze experiment for testing memory-deficient mice mainly included two parts: positioning navigation experiment and space exploration experiment. The experimental methods were the same as Example 5. We randomized memory-deficient mice into six groups, with the first group given intraperitoneal injection of the CCK4 solution, the second group given intraperitoneal injection of the solvent of CCK4 solution as a control, the third group given intraperitoneal injection of the compound HT-267 solution, the fourth group given intraperitoneal injection of the compound HT-177 solution, the fifth group given intraperitoneal injection of the compound HT-178 solution, and the sixth group given intraperitoneal injection of the solvent of compound solution as a control. In the positioning navigation experiment, the treatment and training methods of the first and the second groups were the same as those of the first and second groups in Example 5, that is, four times of treatment a day, four times of training a day, for a total of 10 days of training. The treatment and training methods of the third to sixth groups were the same as the third and fourth groups in Example 5, that is, one treatment a day, four times of training a day, for a total of 8 days of training. In the space exploration experiment, the spatial memory ability of mice was tested in the same way for each group.

For data set [5] the following is noted: male, KM, mouse, in vivo, iv, 1 mg/kg.

Consider `CSCC[C@H](NC(=O)[C@@H](N)Cc1c[nH]c2ccccc12)C(=O)N[C@@H](CC(=O)O)C(=O)N[C@@H](Cc1ccccc1)C(N)=O` [CCK4, Trp-Met-Asp-Phe-NH2, reference compound], for which the results for the “proportion of exploration duration in the target quadrant vs control” value in data set [1] and in data set [4] were “significantly higher than the control group” and “significantly higher than that in the control group”, respectively. The “spatial exploration tracks in space exploration experiment” value in data set [1] and in data set [3] was “more spatial exploration tracks at the original position of the platform” each time. For the same compound, the “evasion latency in positioning navigation experiment vs control” value in data set [1] (CCK4 four times a day 10 days, HT-267 once a day 8 days) was “shorter than that of the control group”; in data set [3], “shorter than that of the control group”. Besides, in data set [2], the half-life entry is listed as “less than 5 minutes”. Besides, in data set [5], the “concentration in blood samples (below detection limitation)” value was less than 50 ng/mL.

Source of the values: US20240415918A1, “Polypeptide and its use as a CCK receptor agonist/antagonist” (Centre for Regenerative Medicine & Health, Hong Kong …, priority 2021, published 2024).
